# Assay results reported in ChEMBL document CHEMBL1201862, “PubChem BioAssay data set” (2004).
#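 Method: 48-hour compound exposure of cells in 96-well plates, five concentrations, linear interpolation of endpoints. GI50: concentration for 50% inhibition of growth.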 Active and inactive are the calls of the source. Cut-off read from the data, not from the text of the source: active = GI50 up to about 1.1 µM and inactive = higher.
# How the values were obtained:
# Assay in all cases: inhibition of tumour cell growth, NCI panel, 48 h
# Malme-3M = test system: Malme-3M
# IGROV-1 = test system: IGROV-1
# SN12C = test system: SN12C
# SF-539 = test system: SF-539
# T47D = test system: T47D
# NCI-H522 = test system: NCI-H522
# SK-MEL-5 = test system: SK-MEL-5
# M14 = test system: M14
# OVCAR-3 = test system: OVCAR-3
# MOLT-4 = test system: MOLT-4
# SF-295 = test system: SF-295
# EKVX = test system: EKVX
# HL-60 = test system: HL-60
# SR = test system: SR
# SK-MEL-2 = test system: SK-MEL-2
# HCC 2998 = test system: HCC 2998
# HCT-15 = test system: HCT-15
# CCRF-CEM = test system: CCRF-CEM
# UACC-62 = test system: UACC-62
# NCI-H23 = test system: NCI-H23
SMILES,GI50 (Malme-3M),GI50 (IGROV-1),GI50 (SN12C),GI50 (SF-539),GI50 (T47D),GI50 (NCI-H522),GI50 (SK-MEL-5),GI50 (M14),GI50 (OVCAR-3),GI50 (MOLT-4),GI50 (SF-295),GI50 (EKVX),GI50 (HL-60),GI50 (SR),GI50 (SK-MEL-2),GI50 (HCC 2998),GI50 (HCT-15) [µM],GI50 (CCRF-CEM),GI50 (UACC-62),GI50 (NCI-H23)
OCC(O)C(O)C(O)C(/C=N\Nc1ncnc2ccc(Br)cc12)=N/Nc1ncnc2ccc(Br)cc12 (stereo not given),3.53 µM (inactive),4.09 µM (inactive),17.9 µM (inactive),8.3 µM (inactive),3.2 µM (inactive),0.596 µM (active),3.37 µM (inactive),9.48 µM (inactive),2.72 µM (inactive),2.62 µM (inactive),23 µM (inactive),4.42 µM (inactive),3.15 µM (inactive),3.17 µM (inactive),3.33 µM (inactive),,,,,
CN(C)CCNC1=Nc2ccccc2C(=S)N2CSCC12 (stereo not given),> 100 µM (inactive),> 100 µM (inactive),> 100 µM (inactive),,> 100 µM (inactive),> 100 µM (inactive),> 100 µM (inactive),> 100 µM (inactive),> 100 µM (inactive),> 100 µM (inactive),> 100 µM (inactive),> 100 µM (inactive),,> 100 µM (inactive),> 100 µM (inactive),> 100 µM (inactive),> 100,> 100 µM (inactive),> 100 µM (inactive),
N/C(=N\Nc1nc2cc([N+](=O)[O-])ccc2o1)c1ccccn1,0.401 µM (active),0.147 µM (active),0.189 µM (active),0.124 µM (active),0.073 µM (active),0.043 µM (active),0.157 µM (active),0.144 µM (active),0.0422 µM (active),0.0621 µM (active),0.207 µM (active),0.0257 µM (active),0.0594 µM (active),0.013 µM (active),0.167 µM (active),,0.0287,< 0.0223 µM (active),0.0574 µM (active),0.229 µM (active)
COC(=O)C(COC(C)=O)NC(=O)/C=C/c1ccc(O)c(OC(C)=O)c1 (stereo not given),> 100 µM (inactive),31.6 µM (inactive),> 100 µM (inactive),15.1 µM (inactive),31.2 µM (inactive),11.4 µM (inactive),> 100 µM (inactive),> 100 µM (inactive),50.6 µM (inactive),13.6 µM (inactive),> 100 µM (inactive),> 100 µM (inactive),,5.81 µM (inactive),> 100 µM (inactive),63.4 µM (inactive),8.97,17.4 µM (inactive),> 100 µM (inactive),> 100 µM (inactive)
O=C1C(Cl)=C(N2C(=O)CCCC2=O)C(=O)c2ccccc21,,15.8 µM (inactive),21.2 µM (inactive),18.5 µM (inactive),22.9 µM (inactive),1.84 µM (inactive),16.6 µM (inactive),19.5 µM (inactive),31.6 µM (inactive),17.9 µM (inactive),82.2 µM (inactive),16.3 µM (inactive),1.7 µM (inactive),21.5 µM (inactive),22.5 µM (inactive),16.6 µM (inactive),11.6,4.13 µM (inactive),19.3 µM (inactive),17.2 µM (inactive)
O=C(NNc1ccc([N+](=O)[O-])cc1[N+](=O)[O-])/C(O)=C\C(=O)c1ccccc1,30 µM (inactive),17.9 µM (inactive),16.5 µM (inactive),15.4 µM (inactive),15.6 µM (inactive),25.6 µM (inactive),20.7 µM (inactive),14.3 µM (inactive),,17.7 µM (inactive),15.3 µM (inactive),25.2 µM (inactive),,19.9 µM (inactive),27.1 µM (inactive),16.4 µM (inactive),16.5,16.9 µM (inactive),15.5 µM (inactive),20 µM (inactive)
COc1cc(C2c3cc4c(cc3OC(NCCO)C2C)OCO4)cc(OC)c1O (stereo not given),6.37 µM (inactive),7.11 µM (inactive),4.6 µM (inactive),13.9 µM (inactive),18.2 µM (inactive),3.27 µM (inactive),4.86 µM (inactive),9.55 µM (inactive),5.2 µM (inactive),,5.48 µM (inactive),,,6.12 µM (inactive),4.79 µM (inactive),5.81 µM (inactive),3.44,,2.94 µM (inactive),24.6 µM (inactive)
Cc1ccc(/C=C2/N/C(=N\N=C/c3ccccc3)NC2=O)cc1,42.5 µM (inactive),51.6 µM (inactive),45.7 µM (inactive),44.4 µM (inactive),28.7 µM (inactive),31.8 µM (inactive),35 µM (inactive),31.7 µM (inactive),44.8 µM (inactive),21.9 µM (inactive),28.9 µM (inactive),43.1 µM (inactive),,30.6 µM (inactive),39.4 µM (inactive),28.9 µM (inactive),30.9,,,54.2 µM (inactive)
Clc1ccc(-c2nc(-c3ccc(Cl)cc3)[s+]s2)cc1,18.7 µM (inactive),19.7 µM (inactive),96.4 µM (inactive),29.7 µM (inactive),> 100 µM (inactive),29.4 µM (inactive),47.8 µM (inactive),> 100 µM (inactive),51.2 µM (inactive),26.6 µM (inactive),> 100 µM (inactive),56.2 µM (inactive),,28.4 µM (inactive),> 100 µM (inactive),> 100 µM (inactive),33.3,37 µM (inactive),52.2 µM (inactive),78 µM (inactive)
C=CCC1(C(=O)OC)CCC/C(=N\O)C1 (stereo not given),> 10 µM (inactive),> 10 µM (inactive),> 10 µM (inactive),> 10 µM (inactive),> 10 µM (inactive),> 10 µM (inactive),> 10 µM (inactive),> 10 µM (inactive),> 10 µM (inactive),> 10 µM (inactive),> 10 µM (inactive),,> 10 µM (inactive),> 10 µM (inactive),,> 10 µM (inactive),> 10,> 10 µM (inactive),> 10 µM (inactive),> 10 µM (inactive)
N#Cc1nc(CCCN2C(=O)c3ccccc3C2=O)oc1N,> 100 µM (inactive),> 100 µM (inactive),> 100 µM (inactive),> 100 µM (inactive),> 100 µM (inactive),> 100 µM (inactive),> 100 µM (inactive),> 100 µM (inactive),> 100 µM (inactive),> 100 µM (inactive),> 100 µM (inactive),> 100 µM (inactive),,> 100 µM (inactive),> 100 µM (inactive),> 100 µM (inactive),> 100,> 100 µM (inactive),,> 100 µM (inactive)
Cc1c(NC(=S)NN)c(=O)n(-c2ccccc2)n1C,32.3 µM (inactive),> 100 µM (inactive),> 100 µM (inactive),> 100 µM (inactive),> 100 µM (inactive),0.637 µM (active),> 100 µM (inactive),> 100 µM (inactive),> 100 µM (inactive),> 100 µM (inactive),> 100 µM (inactive),> 100 µM (inactive),> 100 µM (inactive),> 100 µM (inactive),> 100 µM (inactive),,> 100,> 100 µM (inactive),> 100 µM (inactive),
O=C(c1ccccc1)C1C[C@H]2CO[C@H](c3ccccc3)N2C1=O (stereo not given in full),> 100 µM (inactive),> 100 µM (inactive),> 100 µM (inactive),> 100 µM (inactive),> 100 µM (inactive),> 100 µM (inactive),> 100 µM (inactive),> 100 µM (inactive),> 100 µM (inactive),97.9 µM (inactive),> 100 µM (inactive),> 100 µM (inactive),,> 100 µM (inactive),> 100 µM (inactive),> 100 µM (inactive),> 100,99.3 µM (inactive),> 100 µM (inactive),> 100 µM (inactive)
CC1=C[P+](c2ccccc2)(c2ccccc2)c2ccccc2O1,4.71 µM (inactive),5.28 µM (inactive),1.32 µM (inactive),7.89 µM (inactive),0.597 µM (active),3.25 µM (inactive),2.81 µM (inactive),3.39 µM (inactive),1.14 µM (inactive),2.15 µM (inactive),13 µM (inactive),16.7 µM (inactive),2.06 µM (inactive),1.56 µM (inactive),4.17 µM (inactive),,> 100,,8 µM (inactive),4.07 µM (inactive)
O=C(C[n+]1ccccc1)N/N=C(\C(=O)NC1=C(Cl)C(=O)c2ccccc2C1=O)c1c(O)c2ccc(O)cc2oc1=O,,2.41 µM (inactive),4.44 µM (inactive),4.28 µM (inactive),5.56 µM (inactive),2.07 µM (inactive),1.06 µM (active),3.5 µM (inactive),3.37 µM (inactive),11 µM (inactive),3.05 µM (inactive),12.9 µM (inactive),3.43 µM (inactive),4.19 µM (inactive),2.31 µM (inactive),3.4 µM (inactive),2.42,4.94 µM (inactive),1.84 µM (inactive),2.52 µM (inactive)
CCN(CC)C(=S)SS(=O)(=O)c1ccc(NC(C)=O)cc1,15.9 µM (inactive),,18.2 µM (inactive),,24.9 µM (inactive),< 0.0213 µM (active),0.778 µM (active),17.1 µM (inactive),31.7 µM (inactive),,28.2 µM (inactive),44.5 µM (inactive),23.9 µM (inactive),0.0226 µM (active),41.7 µM (inactive),31.6 µM (inactive),30.9,,19.9 µM (inactive),24 µM (inactive)
